# In patent publication US20040009168A1, “Multidose antibody formulation” (priority 2002, published 2004):
# “Also recorded” adds a separate entry of the source.
# Experiments:
# [1] = test system: formulated humanized monoclonal antibody; test: Size-exclusion chromatography (SEC), monomer content; type: physicochemical; conditions: for Monomer (%): 1 week at 45 ° C.; for Percent monomer (by SEC): after 2 days at 50° C.
# Protocol: (§1) The compatibility of six parenteral preservatives (benzyl alcohol, chlorobutanol, methyl paraben, propyl paraben, phenol, and m-cresol) with the formulated humanized monoclonal antibody was tested. The preservatives were added to the formulated antibody based on their commonly used concentration ranges in marketed multidose products (3). Protein aggregation was suspected to be the primary degradation pathway. Preliminary evaluation of the preservatives was done initially by DSC and after 2 days of incubation at 50° C. by visual inspection for appearance and by SEC for soluble aggregates.
# (§2) Because of the results seen in the preliminary evaluation, additional analyses were done using lower concentrations of the preservatives.
# The monomer content, soluble aggregates, and clips due to hydrolysis were monitored by size-exclusion chromatography. The analytical system employed consisted of an HPLC pump (Perkin Elmer, Series 410) and an autosampler (Perkin Elmer, ISS 2000) connected to a diode array detector (Perkin Elmer, 235C). Two size-exclusion chromatography columns (Tosohaas TSK-Gel, G3000SWXL,), connected in tandem, were used for sample separation. The composition of the mobile phase was 200 mM KPO4, 150 mM NaCl, pH 6.9. Samples were diluted to 1 mg/mL and a sample volume of 40 μL was injected for analysis. The flow rate was 1.0 mL/min, and detection was at 220 and 280 nm.
# [2] = test system: antigen expressed on human T cells; test: Potency testing by FACS binding assay (flow cytometry); conditions: 1 week at 45 ° C.
# Protocol: as §2
# The biological activity (potency) of the protein was measured by flow cytometry, based on the binding of the antibody antigen expressed on human T cells.
# [3] = test system: formulated humanized monoclonal antibody; test: Stability and bioactivity of the protein formulated with 0.75% benzyl alcohol, monitored over time; type: physicochemical
# [4] = test system: Escherichia coli, Staphylococcus aureus, Pseudomonas aeruginosa, Candida albicans, and Aspergillus niger; test: USP and EP/BP preservative efficacy tests; type: cell-based; conditions: 0.75% benzyl alcohol
# Protocol: (§3) In the unmodified USP/EP preservative efficacy tests, each microorganism is tested separately at a concentration of ˜10^5 cfu/mL. […] The preservative efficacy test was modified in this study to reduce the total sample requirement and cost per analysis. Although the bacterial and fungal strains were not tested individually at specified concentrations, by comparing the overall bacterial and fungal log reduction values with the regulatory requirements, an assessment is made of the efficacy of the preservative against these microorganisms.
# The antimicrobial efficacy of the preservative was monitored by the USP and EP/BP preservative efficacy tests.
# [5] = test system: Candida albicans, and Aspergillus niger; test: Preservative screening test (modified USP/EP preservative efficacy test), fungi; type: cell-based; conditions: for Fungi × 10^5 (cfu/mL): 1 week at 25 ° C., total fungal count 2.84 × 10^5 cfu/mL
# Protocol: (§4) The efficacy of the preservative against various microorganisms was measured using a modified USP/EP preservative efficacy test. These tests were conducted at Microconsult Inc. (Dallas, Tex.). In the procedure, formulations were tested against the following microorganisms: Escherichia coli, Staphylococcus aureus, Pseudomonas aeruginosa, Candida albicans, and Aspergillus niger. The three bacterial strains were inoculated together at a total concentration of ˜10^5 cfu/mL, and the two fungi were inoculated together at a total concentration of ˜10^5 cfu/mL. Samples were incubated for 7 days at room temperature (25° C.), and the total bacterial and fungal counts were measured using a colony counter. The log reduction (LR) values for the bacterial and fungal counts were calculated as log (initial count/final count).
# as §3
# (§5) The formulations were prepared by adding the preservatives at the desired concentrations as per the I-optimal design table (Table II), generated using the software Strategy (Experiment Strategies Foundation & Process Builder, Inc.). All samples were incubated at 37° C. for 9 weeks. Because protein aggregation was known to be the primary degradation pathway, protein stability was examined by SEC and right-angle light scattering to monitor the formation of soluble and insoluble aggregates, respectively, and by UV spectroscopy to monitor changes in the protein concentration. The biological activity of the samples was assessed after 1 month at 37° C. Furthermore, to assess the antimicrobial efficacy of the formulations, samples were examined by the preservative screening test at the initial time point. Samples were incubated at room temperature, and the aerobic plate counts were measured based on the minimum requirements of the USP and BP/EP preservative efficacy tests at 24 hours, 7 days, and 14 days.
# [6] = test system: formulated humanized monoclonal antibody; test: Visual analysis of the antibody formulation with preservative; type: physicochemical; conditions: for Visual analysis: after 2 days at 50° C.
# Protocol: as §1
# [7] = test system: formulated humanized monoclonal antibody; test: Differential scanning calorimetry (DSC), denaturation temperature; type: physicochemical; conditions: initial time point, t0
# Protocol: as §1
# A decrease in the denaturation temperature reflects a destabilizing effect of the preservative on formulation stability. The denaturation temperature (Tm) of the sample was measured using the Pyris 1 differential scanning calorimeter (Perkin Elmer). A sample volume of 50 μL was taken from a 10 mg/mL protein sample and sealed in a stainless steel pan. The sample was held at 32° C. for 2 minutes, and heated to 100° C. at the rate of 10° C./min.
# [8] = test system: Escherichia coli, Staphylococcus aureus, Pseudomonas aeruginosa; test: Preservative screening test (modified USP/EP preservative efficacy test), bacteria; type: cell-based; conditions: for b-coefficient, Bacterial LR: ± 95% confidence limits; for Bacterial × 10^4 (cfu/mL): 1 week at 25 ° C., total bacterial count 8.78 × 10^4 cfu/mL
# Protocol: as §4, §3, §5
# [9] = preservative 0.5%, listed as benzyl alcohol
# [10] = main effect of the preservative (bi)
# [11] = preservative 0.75%, listed as benzyl alcohol
# [12] = quadratic term of one preservative (bii)
# [13] = single preservative, 0.75% benzyl alcohol
structure (smiles),measurement,setting,value
"OCc1ccccc1 [Benzyl alcohol, benzyl alcohol]",Stability by SEC (in words),[1]; 7 days at 45° C.,unstable due to the formation of soluble aggregates
same,aggregation (in words),[1]; benzyl alcohol at high concentrations (≧1.0%),caused significant aggregation
same,Monomer (%),[1]; preservative 0.1%,97.65%
same,Monomer (%),[1]; preservative 0.5%,93.92%
same,Percent monomer (by SEC),[1]; preservative 0.5%,92.3%
same,Percent monomer (by SEC),[1]; [9],~92%
same,Monomer (%),[1]; preservative 0.75%,87.97%
same,Percent monomer (by SEC),[1]; preservative 1.0%,13.4%
same,Potency (%),[2]; preservative 0.1%,81%
same,Potency (%),[2]; preservative 0.5%,75%
same,Potency (%),[2]; preservative 0.75%,74%
same,protein stability compared with the control formulation,[3],comparable to that of the control formulation
same,USP and EP/BP regulatory requirements,[4],USP and EP/BP (criterion B only) regulatory requirements were satisfied
same,antimicrobial efficacy against fungi (in words),"[5]; 7 days, at least 0.5% benzyl alcohol, parabens and chlorobutanol at their highest concentration",satisfactory
same,"b-coefficient, Fungal LR",[5]; [10],0.51
same,Fungi × 10^5 (cfu/mL),[5]; preservative 0.1%,12 × 10^5 cfu/mL
same,Fungi × 10^5 (cfu/mL),[5]; preservative 0.5%,0 × 10^5 cfu/mL
same,Fungi × 10^5 (cfu/mL),[5]; [9],complete kill
same,Fungi × 10^5 (cfu/mL),[5]; preservative 0.75%,0 × 10^5 cfu/mL
same,Fungi × 10^5 (cfu/mL),[5]; [11],complete kill
same,"b-coefficient, Fungal LR",[5]; [12],−0.46
same,"log reduction value predicted by simulation, fungi",[5]; [13],3.7
same,antibody precipitation,[6]; benzyl alcohol at high concentration such as 1.0%,causes antibody precipitation
same,Visual analysis,[6]; preservative 0.5%,Clear
same,Visual analysis,[6]; [9],clear
same,Visual analysis,[6]; preservative 1.0%,Slightly cloudy
same,Visual analysis,[6]; preservative 2%,caused sample precipitation; also recorded: Precipitated
same,Tm (by DSC),[7]; preservative 0.5%,78.5 °C
same,Tm (by DSC),[7]; preservative 1.0%,75.8 °C
same,Tm (by DSC),[7]; preservative 2%,72.3 °C
same,"antimicrobial efficacy against bacteria (regression analysis, in words)","[8]; I-optimal design, 14 days at room temperature",statistically significant antimicrobial efficacy
same,"b-coefficient, Bacterial LR",[8]; [10],1.04 ± 0.05
same,Bacterial × 10^4 (cfu/mL),[8]; preservative 0.1%,TNTC
same,Bacterial × 10^4 (cfu/mL),[8]; preservative 0.5%,0 × 10^4 cfu/mL
same,Bacterial × 10^4 (cfu/mL),[8]; [9],complete kill
same,Bacterial × 10^4 (cfu/mL),[8]; preservative 0.75%,0 × 10^4 cfu/mL
same,Bacterial × 10^4 (cfu/mL),[8]; [11],complete kill
same,"b-coefficient, Bacterial LR",[8]; [12],−0.68 ± 0.11
same,"log reduction value predicted by simulation, bacteria",[8]; [13],4.8
